Laboratory results published in US7714006B1, “Methods of modifying the bioavailability of metaxalone” (King Pharmaceuticals Research & Development, Inc., priority 2001, dated 2010).

Legend:
[1] = Effects of age and gender on PK parameters, study 101 (1×400 mg with and without food); format: in vivo, human
Method: (§1) In addition, the robustness of the results are assessed by applying similar analysis approaches to the data from two other studies: • Study AN151607-101 (hereafter referred to as the 101 study): a two-period, randomized crossover trial with treatment conditions 1×400 mg with food and 1×400 mg without food; • Study AN151607-106 (hereafter referred to as the 106 study): a single dose trial with treatment condition 2×400 mg without food.
Study 101 was a two-period randomized crossover trial conducted in 42 healthy volunteers. The mean age was 23.8 years, with a range from 18 to 42 years. The treatment conditions were 1×400 mg with food and 1×400 mg without food. Because the treatments were not the same as in the 103 and 105 studies (1×400 mg in study 101, as opposed to 2×400 mg in studies 103 and 105), and additionally because the blood sample collection schedules were not the same, it is not possible to combine the 101 data with the data from studies 103 and 105. However, it is possible to independently investigate the effects of age on fed and fasted values of the PK parameters in order to determine if the effects are of similar magnitude and direction to those found in the 103 and 105 studies.
First, Pearson and Spearman correlation coefficients between age and each of the three PK parameters were computed. The correlation coefficients and two-sided p-values from the test of the null hypothesis of no association are shown below in TABLE VIa:
(§2) Linear regression models using the natural logarithm of each of the three PK parameters as the dependent variable and age as the independent variable were fitted in order to estimate the magnitude of the associations with age.
Study 101 was a two-period randomized crossover trial conducted in 42 healthy volunteers (31 males, 11 females). The mean age was 23.8 years, with a range from 18 to 42 years. The treatment conditions were 1×400 mg with food and 1×400 mg without food. Because the treatments were not the same as in the 103 and 105 studies, and additionally because the blood sample collection schedules were not the same, it is not possible to combine the 101 data with the data from studies 103 and 105. However, it is reasonable to independently investigate the effects of age and gender on the fed and fasted values of the PK parameters in order to determine if the effects are of similar magnitude and direction to those found in the 103 and 105 studies.
The same regression modeling strategy as was described in Sections 3.2 and 3.3 was also applied. The initial regression models with a gender effect and separate age effects for males and females yielded positive estimates of the age effect for males and negative estimates for females. This was consistent across all three PK parameters. However, none of the age effects was statistically significant and, in addition, there was no significant evidence of interaction between age and gender (all p-values exceeded 0.10). […]

[2] = Effects of age and gender on fasted PK parameters, study 106 (2×400 mg without food); format: in vivo, human
Method: as §1
(§3) Study 106 was a single dose trial conducted in 48 healthy volunteers. The mean age was 24.7 years, with a range from 18 to 50 years. The single treatment condition in this study was 2×400 mg without food. Blood samples for PK analyses were obtained at the same time points as in the 103 and 105 studies.
First, Pearson and Spearman correlation coefficients between age and each of the three PK parameters were computed. The correlation coefficients and two-sided p-values from the test of the null hypothesis of no association are shown below in TABLE VIIIa:
as §2
as §3, with “volunteers (24 males, 24 females).” for “volunteers.”
The same regression modeling strategy as was described in Sections 3.2 and 3.3 was also used. In the initial regression models with a gender effect and separate age effects for males and females, the parameter estimates for all three variables were negative for males and positive for females. In addition, the age effect in females was statistically significant for ln(AUC(last)) and ln(AUC(inf)). However, the tests of equality between the age effects for males and females (i.e., the age-by-gender interaction) were not statistically significant for any of the three variables; the p-values ranged from 0.08 to 0.11.

Proportion of variability explained by age, ln(AUC(inf)) ([1]; fasted): 7.7%
Proportion of variability explained by age, ln(Cmax) ([1]; fasted): 13.4%
Pearson correlation, age vs ln(AUC(inf)) ([1]; fasted, females n=11): 0.208
Pearson correlation, age vs ln(AUC(last)) ([1]; fasted, females n=11): 0.284
Pearson correlation, age vs ln(Cmax) ([1]; fasted, females n=11): 0.309
Spearman correlation, age vs ln(AUC(inf)) ([1]; fasted, females n=11): 0.235
Spearman correlation, age vs ln(AUC(last)) ([1]; fasted, females n=11): 0.406
Spearman correlation, age vs ln(Cmax) ([1]; fasted, females n=11): 0.525
Pearson correlation, age vs ln(AUC(inf)) ([1]; fasted, males n=31): 0.287
Pearson correlation, age vs ln(AUC(last)) ([1]; fasted, males n=31): 0.279
Pearson correlation, age vs ln(Cmax) ([1]; fasted, males n=31): 0.384
Spearman correlation, age vs ln(AUC(inf)) ([1]; fasted, males n=31): 0.115
Spearman correlation, age vs ln(AUC(last)) ([1]; fasted, males n=31): 0.127
Spearman correlation, age vs ln(Cmax) ([1]; fasted, males n=31): 0.206
Pearson correlation, age vs ln(AUC(inf)) ([1]; fasted, n=42): 0.277
Pearson correlation, age vs ln(AUC(last)) ([1]; fasted, n=42): 0.289
Pearson correlation, age vs ln(Cmax) ([1]; fasted, n=42): 0.366
Spearman correlation, age vs ln(AUC(inf)) ([1]; fasted, n=42): 0.146
Spearman correlation, age vs ln(AUC(last)) ([1]; fasted, n=42): 0.161
Spearman correlation, age vs ln(Cmax) ([1]; fasted, n=42): 0.235
Proportion of variability explained by age, ln(AUC(inf)) ([1]; fed): 3%
Proportion of variability explained by age, ln(AUC(last)) ([1]; fed): 3%
Proportion of variability explained by age, ln(Cmax) ([1]; fed): 1%
Pearson correlation, age vs ln(AUC(inf)) ([1]; fed, females n=11): −0.165
Pearson correlation, age vs ln(AUC(last)) ([1]; fed, females n=11): −0.188
Pearson correlation, age vs ln(Cmax) ([1]; fed, females n=11): −0.396
Spearman correlation, age vs ln(AUC(inf)) ([1]; fed, females n=11): −0.244
Spearman correlation, age vs ln(AUC(last)) ([1]; fed, females n=11): −0.295
Spearman correlation, age vs ln(Cmax) ([1]; fed, females n=11): −0.645
Pearson correlation, age vs ln(AUC(inf)) ([1]; fed, males n=31): 0.268
Pearson correlation, age vs ln(AUC(last)) ([1]; fed, males n=31): 0.271
Pearson correlation, age vs ln(Cmax) ([1]; fed, males n=31): 0.234
Spearman correlation, age vs ln(AUC(inf)) ([1]; fed, males n=31): 0.088
Spearman correlation, age vs ln(AUC(last)) ([1]; fed, males n=31): 0.094
Spearman correlation, age vs ln(Cmax) ([1]; fed, males n=31): 0.169
Pearson correlation, age vs ln(AUC(inf)) ([1]; fed, n=42): 0.186
Pearson correlation, age vs ln(AUC(last)) ([1]; fed, n=42): 0.179
Pearson correlation, age vs ln(Cmax) ([1]; fed, n=42): 0.102
Spearman correlation, age vs ln(AUC(inf)) ([1]; fed, n=42): 0.029
Spearman correlation, age vs ln(AUC(last)) ([1]; fed, n=42): 0.022
Spearman correlation, age vs ln(Cmax) ([1]; fed, n=42): −0.009
Pearson correlation, age vs ln(AUC(inf)) ([2]; females n=24): 0.416
Pearson correlation, age vs ln(AUC(last)) ([2]; females n=24): 0.431
Pearson correlation, age vs ln(Cmax) ([2]; females n=24): 0.336
Spearman correlation, age vs ln(AUC(inf)) ([2]; females n=24): 0.368
Spearman correlation, age vs ln(AUC(last)) ([2]; females n=24): 0.428
Spearman correlation, age vs ln(Cmax) ([2]; females n=24): 0.279
Pearson correlation, age vs ln(AUC(inf)) ([2]; males n=24): −0.184
Pearson correlation, age vs ln(AUC(last)) ([2]; males n=24): −0.178
Pearson correlation, age vs ln(Cmax) ([2]; males n=24): −0.202
Spearman correlation, age vs ln(AUC(inf)) ([2]; males n=24): −0.368
Spearman correlation, age vs ln(AUC(last)) ([2]; males n=24): −0.365
Spearman correlation, age vs ln(Cmax) ([2]; males n=24): −0.316
Pearson correlation, age vs ln(AUC(inf)) ([2]; n=48): 0.348
Pearson correlation, age vs ln(AUC(last)) ([2]; n=48): 0.349
Pearson correlation, age vs ln(Cmax) ([2]; n=48): 0.260
Spearman correlation, age vs ln(AUC(inf)) ([2]; n=48): 0.173
Spearman correlation, age vs ln(AUC(last)) ([2]; n=48): 0.189
Spearman correlation, age vs ln(Cmax) ([2]; n=48): 0.125
SMILES: Cc1cc(C)cc(OCC2CNC(=O)O2)c1 (centres unmarked) [metaxalone, 5-[(3,5-dimethylphenoxy)methyl]-2 oxazolidinone]
